Data: ChEMBL document CHEMBL5584239, “Discovery of novel quinoline scaffold selective estrogen receptor degraders (SERDs) for treatment of ER positive breast cancer with enhanced antiproliferative bioactivity through immunogenic cell death (ICD) effects” (Eur J Med Chem, 2024)
Active and inactive are the calls of the source. The calls are words filed in the database; no cut-off is given here.

Assays:
[1] = MRT (0 to infinity) in rat at 5 mg/kg, iv measured for 1 to 24 hrs by LC-MS analysis; format: ADME, organism-based; settings: in vivo, time 1-24 hrs
MCF7 [2] = experiment: Induction of ROS production in human MCF7 cells incubated for 3 to 24 hrs by immunofluorescence analysis; format: functional, cell-based; settings: time 3-24 hrs
[3] = AUC (0 to t) in rat at 20 mg/kg, po measured for 1 to 24 hrs by LC-MS analysis; format: ADME, organism-based; settings: in vivo, time 1-24 hrs
[4] = MRT (0 to t) in rat at 5 mg/kg, iv measured for 1 to 24 hrs by LC-MS analysis; format: ADME, organism-based; settings: in vivo, time 1-24 hrs
MCF7 [5] = experiment: Antitumor activity against human MCF7 cells xenografted in nude mouse model assessed as reduction in Ki67 level at 60 mg/kg, po administered daily via gavage for 30 days in presence of ribociclib by IHC analysis; format: functional, organism-based; settings: time 30.0 day
[6] = Toxicity in nude mouse model xenografted with human MCF7 cells assessed as body weight loss at 60 mg/kg, po administered daily via gavage for 30 days; format: organism-based; settings: in vivo, 720 h, time 30 day
[7] = Toxicity in nude mouse model xenografted with human MCF7 cells assessed as morphological change in kidney at 60 mg/kg, po administered daily via gavage for 30 days by H and E staining based analysis; format: organism-based; settings: in vivo, 720 h, time 30 day
[8] = Clearance in rat at 5 mg/kg, iv measured for 1 to 24 hrs by LC-MS analysis; format: ADME, organism-based; settings: in vivo, time 1-24 hrs
MCF7 [9] = experiment: Induction of immunogenic cell death in human MCF7 cells assessed as CRT translocation at 10 uM by FITC staining based flow cytometry; format: functional
[10] = molecular target: T1, Estrogen receptor (Homo sapiens) (UniProt P03372); experiment: Induction of estrogen receptor degradation in estradiol-stimulated human MCF7 cells assessed as decrease in TFF1 mRNA level incubated for 24 hrs by RT-qPCR analysis; format: cell-based; settings: dose 1-10 µM
T1 sequence (whole entry): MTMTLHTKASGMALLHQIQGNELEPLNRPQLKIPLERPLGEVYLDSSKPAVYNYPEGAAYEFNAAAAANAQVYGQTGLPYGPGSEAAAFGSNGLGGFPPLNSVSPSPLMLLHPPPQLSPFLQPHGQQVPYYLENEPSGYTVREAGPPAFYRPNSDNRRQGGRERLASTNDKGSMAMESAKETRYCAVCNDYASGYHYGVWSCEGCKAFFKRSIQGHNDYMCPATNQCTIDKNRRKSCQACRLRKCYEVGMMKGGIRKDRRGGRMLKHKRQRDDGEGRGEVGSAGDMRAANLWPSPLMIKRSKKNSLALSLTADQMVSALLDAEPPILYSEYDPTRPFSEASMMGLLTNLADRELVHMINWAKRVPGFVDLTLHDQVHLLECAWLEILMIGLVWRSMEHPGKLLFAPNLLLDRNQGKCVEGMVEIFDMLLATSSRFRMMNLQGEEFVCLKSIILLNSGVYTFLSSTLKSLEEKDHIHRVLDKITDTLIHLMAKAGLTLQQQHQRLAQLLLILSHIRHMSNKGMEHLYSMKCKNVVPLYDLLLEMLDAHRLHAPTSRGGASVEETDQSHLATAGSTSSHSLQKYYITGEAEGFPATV

MCF7 [11] = experiment: Antitumor activity against human MCF7 cells xenografted in nude mouse model assessed as tumor growth inhibition at 60 mg/kg, po administered daily via gavage for 30 days; format: functional, organism-based; settings: time 30.0 day
[12] = Toxicity in nude mouse model xenografted with human MCF7 cells assessed as morphological change in spleen at 60 mg/kg, po administered daily via gavage for 30 days by H and E staining based analysis; format: organism-based; settings: in vivo, 720 h, time 30 day
MCF7 [13] = experiment: Induction of endoplasmic reticulum stress effect in human MCF7 cells assessed as change in GRP78 level at 10 uM incubated for 3 to 24 hrs by Western blot analysis; format: functional, cell-based; settings: time 3-24 hrs
MCF7 [14] = experiment: Induction of endoplasmic reticulum stress effect in human MCF7 cells assessed as change in CHOP level at 10 uM incubated for 3 to 24 hrs by Western blot analysis; format: functional, cell-based; settings: time 3-24 hrs
[15] = AUC (0 to infinity) in rat at 5 mg/kg, iv measured for 1 to 24 hrs by LC-MS analysis; format: ADME, organism-based; settings: in vivo, time 1-24 hrs
[16] = molecular target: T1, Estrogen receptor (Homo sapiens); experiment: Induction of estrogen receptor degradation in human MCF7 cells at 10 uM by fluorescence microscopy; format: cell-based
MCF7 [17] = experiment: Induction of endoplasmic reticulum stress effect in human MCF7 cells assessed as change in calnexin level at 10 uM incubated for 24 hrs by immunofluorescence based analysis; format: functional, cell-based
[18] = MRT (0 to t) in rat at 20 mg/kg, po measured for 1 to 24 hrs by LC-MS analysis; format: ADME, organism-based; settings: in vivo, time 1-24 hrs
[19] = Cmax in rat at 20 mg/kg, po measured for 1 to 24 hrs by LC-MS analysis; format: ADME, organism-based; settings: in vivo, time 1-24 hrs
[20] = Half life in rat at 20 mg/kg, po measured for 1 to 24 hrs by LC-MS analysis; format: ADME, organism-based; settings: in vivo, time 1-24 hrs
MCF7 [21] = experiment: Antitumor activity against human MCF7 cells xenografted in nude mouse model at 60 mg/kg, po administered daily via gavage for 30 days in presence of ribociclib; format: functional, organism-based; settings: time 30.0 day
[22] = Half life in rat at 5 mg/kg, iv measured for 1 to 24 hrs by LC-MS analysis; format: ADME, organism-based; settings: in vivo, time 1-24 hrs
[23] = AUC (0 to infinity) in rat at 20 mg/kg, po measured for 1 to 24 hrs by LC-MS analysis; format: ADME, organism-based; settings: in vivo, time 1-24 hrs
MCF7 [24] = experiment: Antitumor activity against human MCF7 cells xenografted in nude mouse model assessed as reduction in ER level at 60 mg/kg, po administered daily via gavage for 30 days in presence of ribociclib by IHC analysis; format: functional, organism-based; settings: time 30.0 day
MCF7 [25] = experiment: Induction of immunogenic cell death in human MCF7 cells assessed as ATP release […] at 10 uM; format: functional, cell-based

**Q.** With CCc1ccccc1C(=O)c1cnc2cc(O)ccc2c1Oc1ccc(/C=C/C(=O)O)cc1 as the compound, how does the MRT inf [1] read?
**A.** 7.56 min

**Q.** And the Activity (MCF7 [2])?
**A.** inactive

**Q.** And the AUC(0-t) [3]?
**A.** 628 ng·h/mL

**Q.** And the MRT last [4]?
**A.** 7.2 min

**Q.** What about the Activity (MCF7 [5]) of the same compound?
**A.** Active

**Q.** What about the Activity [6] of the same compound?
**A.** Non-Toxic

**Q.** And the Activity [7]?
**A.** Non-Toxic

**Q.** What about the clearance [8] of the same compound?
**A.** 27.8 mL/min/kg

**Q.** And the Activity (MCF7 [9])?
**A.** Active

**Q.** What about the Activity [10] of the same compound?
**A.** Dose-Dependent Effect

**Q.** And the inhibition (MCF7 [11])?
**A.** Active

**Q.** And the Activity [12]?
**A.** Non-Toxic

**Q.** And the Activity (MCF7 [13])?
**A.** Active

**Q.** What about the Activity (MCF7 [14]) of the same compound?
**A.** Active

**Q.** What about the AUC(0-inf) [15] of the same compound?
**A.** 3050 ng·h/mL

**Q.** What about the Activity [16] of the same compound?
**A.** Active

**Q.** What about the Activity (MCF7 [17]) of the same compound?
**A.** Active

**Q.** And the MRT last [18]?
**A.** 131 min

**Q.** And the Cmax [19]?
**A.** 501 ng/mL

**Q.** And the half-life [20]?
**A.** 191 min

**Q.** What about the Activity (MCF7 [21]) of the same compound?
**A.** Active

**Q.** And the half-life [22]?
**A.** 51.8 min

**Q.** And the AUC(0-inf) [23]?
**A.** 649 ng·h/mL

**Q.** And the Activity (MCF7 [24])?
**A.** Active

**Q.** What about the Activity (MCF7 [25]) of the same compound?
**A.** Active
